We go through 28 compounds from BindingDB's records for doi:10.1021/jm960395q (Shionogi, 1996).

The structures appear in SMILES notation.

For assay [1], the target named is T1, Phospholipase A2 (Homo sapiens, UniProt P04054). In words: Inhibition of recombinant human secretory Phospholipase A2 (s-PLA2).
Assay [2] is described as follows: Inhibitory activity against recombinant human secretory Phospholipase A2 (s-PLA2) by phosphatidylcholine/deoxycholate assay(PC/DOC).
The target of assay [3] is T1, Phospholipase A2. In words: Inhibition of recombinant human secretory phospholipase A2 (sPLA2), chromogenic screening assay.
A short description of assay [4]: Inhibitory activity against recombinant human secretory phospholipase A2 (s-PLA2) by phosphatidylcholine/deoxycholate assay (PC/DOC).

T1 sequence (P04054 whole entry): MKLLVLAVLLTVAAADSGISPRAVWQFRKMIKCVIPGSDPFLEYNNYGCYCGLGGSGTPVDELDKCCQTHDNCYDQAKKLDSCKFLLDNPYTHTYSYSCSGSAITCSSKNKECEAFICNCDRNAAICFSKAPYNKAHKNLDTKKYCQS

For the compound `CCC1C(CC(N)=O)=C2C(OCC(=O)O)=CC=CN2/C1=C\c1ccccc1` (stereo not given) [{1-Carbamoylmethyl-2-ethyl-3-[1-phenyl-meth-(Z)-ylidene]-2,3-dihydro-indolizin-8-yloxy}-acetic acid], the IC50 (in general, the concentration at which inhibition is half-maximal) at Phospholipase A2 [1] was 160 nM.
For the compound `CCc1c(C(=O)C(N)=O)c2c(OCc3ccc4ccccc4n3)cccn2c1Cc1ccccc1-c1ccccc1` [2-[3-Biphenyl-2-ylmethyl-2-ethyl-8-(quinolin-2-ylmethoxy)-indolizin-1-yl]-2-oxo-acetamide], the IC50 on Phospholipase A2 [1] amounted to 55 nM.
For the compound `COC(=O)CCCOC1=CC=CN2C1=C(CC(N)=O)C(C)C2Cc1ccccc1` (stereo not given) [4-(3-Benzyl-1-carbamoylmethyl-2-methyl-2,3-dihydro-indolizin-8-yloxy)-butyric acid methyl ester], at Phospholipase A2 [1], the IC50 was 15000 nM.
Consider `CCC1C(CC(N)=O)=C2C(OCC(=O)O)=CC=CN2/C1=C\c1cccc2ccccc12` (stereo not given) [{1-Carbamoylmethyl-2-ethyl-3-[1-naphthalen-1-yl-meth-(Z)-ylidene]-2,3-dihydro-indolizin-8-yloxy}-acetic acid], for which the IC50 at Phospholipase A2 [1] stood at 25 nM; in assay [2], 130000 nM.
As to `CCC1C(CC(N)=O)=C2C(OCC(=O)O)=CC=CN2/C1=C\c1cccc(Cl)c1` (stereo not given) [{1-Carbamoylmethyl-3-[1-(3-chloro-phenyl)-meth-(Z)-ylidene]-2-ethyl-2,3-dihydro-indolizin-8-yloxy}-acetic acid], on Phospholipase A2 [1], the IC50 is 200 nM.
As for `CC1C(C(N)=O)=C2C(OCC(=O)O)=CC=CN2/C1=C\c1ccccc1` (stereo not given) [{1-Carbamoyl-2-methyl-3-[1-phenyl-meth-(Z)-ylidene]-2,3-dihydro-indolizin-8-yloxy}-acetic acid], at Phospholipase A2 [1], the IC50 came to 420 nM.
On the same count and under the same terms, next, `CCC1C(CC(N)=O)=C2C(OCC(=O)O)=CC=CN2/C1=C\c1cccc(C(F)(F)F)c1` (stereo not given) [{1-Carbamoylmethyl-2-ethyl-3-[1-(3-trifluoromethyl-phenyl)-meth-(Z)-ylidene]-2,3-dihydro-indolizin-8-yloxy}-acetic acid]: 240 nM; `CCC1C(C(N)=O)=C2C(OCC(=O)O)=CC=CN2/C1=C\c1ccccc1Cc1ccccc1` (stereo not given) [{3-[1-(2-Benzyl-phenyl)-meth-(Z)-ylidene]-1-carbamoyl-2-ethyl-2,3-dihydro-indolizin-8-yloxy}-acetic acid]: 400 nM; `CCC1C(CC(N)=O)=C2C(OCC(=O)O)=CC=CN2/C1=C\c1cccc(Cl)c1Cl` (stereo not given) [{1-Carbamoylmethyl-3-[1-(2,3-dichloro-phenyl)-meth-(Z)-ylidene]-2-ethyl-2,3-dihydro-indolizin-8-yloxy}-acetic acid]: 67 nM.
With `CCc1c(C(=O)C(N)=O)c2c(OCn3ncnn3)cccn2c1Cc1cccc(Cl)c1` [2-[3-(3-Chloro-benzyl)-2-ethyl-8-(4H-tetrazol-2-ylmethoxy)-indolizin-1-yl]-2-oxo-acetamide], the IC50 on Phospholipase A2 [1] came to 30 nM; in assay [2], 45000 nM.
On the same counts, the results for `CCC1C(CC(N)=O)=C2C(OCC(=O)O)=CC=CN2/C1=C\c1ccccc1-c1ccccc1` (stereo not given) [{3-[1-Biphenyl-2-yl-meth-(Z)-ylidene]-1-carbamoylmethyl-2-ethyl-2,3-dihydro-indolizin-8-yloxy}-acetic acid] are 100 nM and 420000 nM.
`CCc1c(CC(N)=O)c2c(OCC(=O)O)cccn2c1Cc1cccc(Cl)c1` [[1-Carbamoylmethyl-3-(3-chloro-benzyl)-2-ethyl-indolizin-8-yloxy]-acetic acid]: the 50% inhibitory concentration (IC50) stood at 15 nM on Phospholipase A2 [3] and 52 nM in assay [4].
Taken in the same sequence, the figures for `CCc1c(C(N)=O)c2c(OCC(=O)O)cccn2c1Cc1cccc2ccccc12` [(1-Carbamoyl-2-ethyl-3-naphthalen-1-ylmethyl-indolizin-8-yloxy)-acetic acid] were 30 nM and 135 nM.
As to `CC1C(CC(N)=O)=C2C(OCC(=O)O)=CC=CN2C1Cc1ccccc1` (stereo not given) [(3-Benzyl-1-carbamoylmethyl-2-methyl-2,3-dihydro-indolizin-8-yloxy)-acetic acid], at Phospholipase A2 [1], the IC50 was 12000 nM.
With `CCc1c(C(=O)C(N)=O)c2c(OCC(=O)O)cccn2c1Cc1cccc(C(F)(F)F)c1` [[1-Aminooxalyl-2-ethyl-3-(3-trifluoromethyl-benzyl)-indolizin-8-yloxy]-acetic acid], the IC50 was 9 nM at Phospholipase A2 [3] and 3 nM in assay [4].
On the same counts, the results for `CCc1c(C(=O)C(N)=O)c2c(OCC(=O)O)cccn2c1CC1CCCCC1` [(1-Aminooxalyl-3-cyclohexylmethyl-2-ethyl-indolizin-8-yloxy)-acetic acid] are 21 nM and 30 nM.
As to `COC(=O)COc1cccn2c(Cc3ccccc3-c3ccccc3)c(C)c(C(=O)C(N)=O)c12` [(1-Aminooxalyl-3-biphenyl-2-ylmethyl-2-methyl-indolizin-8-yloxy)-acetic acid methyl ester], the IC50 at Phospholipase A2 [3] turned out to be 8 nM; in assay [4], 1.4 nM.
For the compound `CCc1c(CC(N)=O)c2c(OCC(=O)O)cccn2c1Cc1ccccc1-c1ccccc1` [(3-Biphenyl-2-ylmethyl-1-carbamoylmethyl-2-ethyl-indolizin-8-yloxy)-acetic acid], the IC50 (at Phospholipase A2 [3]; in assay [4]) was 14 nM throughout.
For the compound `CCc1c(C(=O)C(N)=O)c2c(OCC(=O)O)cccn2c1Cc1ccccc1Cc1ccccc1` [[1-Aminooxalyl-3-(2-benzyl-benzyl)-2-ethyl-indolizin-8-yloxy]-acetic acid], the IC50 on Phospholipase A2 [3] was 6 nM; in assay [4] it was 1.3 nM.
Turning to `CCc1c(C(=O)C(N)=O)c2c(OCC(=O)O)cccn2c1CC1CCCCCC1` [(1-Aminooxalyl-3-cycloheptylmethyl-2-ethyl-indolizin-8-yloxy)-acetic acid], the values for the IC50 (on Phospholipase A2 [3]; in assay [4]) were 23 nM and 100 nM, respectively.
On the same counts, the results for `COc1c(C(=O)C(N)=O)c2c(OCC(=O)O)cccn2c1Cc1ccccc1-c1ccccc1` [(1-Aminooxalyl-3-biphenyl-2-ylmethyl-2-methoxy-indolizin-8-yloxy)-acetic acid] are 15 nM and 13 nM.
In the case of `CCC1C(CC(N)=O)=C2C(OCC(=O)O)=CC=CN2/C1=C\c1ccc2ccccc2c1` (stereo not given) [{1-Carbamoylmethyl-2-ethyl-3-[1-naphthalen-2-yl-meth-(Z)-ylidene]-2,3-dihydro-indolizin-8-yloxy}-acetic acid], on Phospholipase A2 [1], the IC50 came out at 170 nM.
Take `Cc1c(C(=O)C(N)=O)c2c(OCC(=O)O)cccn2c1Cc1ccccc1` [(1-Aminooxalyl-3-benzyl-2-methyl-indolizin-8-yloxy)-acetic acid]: the IC50 at Phospholipase A2 [3] was determined as 8 nM; in assay [4], 3 nM.
As for `NC(=O)C(=O)c1c(C2CC2)c(CC2CCCC2)n2cccc(OCC(=O)O)c12` [(1-Aminooxalyl-3-cyclopentylmethyl-2-cyclopropyl-indolizin-8-yloxy)-acetic acid], the IC50 at Phospholipase A2 [3] came out at 29 nM; in assay [4], 88 nM.
On to `CCc1c(C(=O)C(N)=O)c2c(OCC(=O)O)cccn2c1Cc1cccc2ccccc12` [(1-Aminooxalyl-2-ethyl-3-naphthalen-1-ylmethyl-indolizin-8-yloxy)-acetic acid], for which the results for the half-inhibitory concentration (IC50) (at Phospholipase A2 [3]; in assay [4]) were 5 nM and 24 nM, respectively.
Turning to `CC1C(CC(N)=O)=C2C(OCCCC(=O)O)=CC=CN2/C1=C\c1ccccc1` (stereo not given) [4-{1-Carbamoylmethyl-2-methyl-3-[1-phenyl-meth-(Z)-ylidene]-2,3-dihydro-indolizin-8-yloxy}-butyric acid], the IC50 at Phospholipase A2 [1] came out at 910 nM.
In the case of `CCc1c(C(=O)C(N)=O)c2c(OCC(=O)OC)cccn2c1C/C=C/c1ccccc1` [[1-Aminooxalyl-2-ethyl-3-((E)-3-phenyl-allyl)-indolizin-8-yloxy]-acetic acid methyl ester], the IC50 on Phospholipase A2 [3] was determined as 38 nM; in assay [4], 80 nM.
In the case of `CCc1c(C(=O)C(N)=O)c2c(OCC(=O)O)cccn2c1Cc1cccc(OC)c1` [[1-Aminooxalyl-2-ethyl-3-(3-methoxy-benzyl)-indolizin-8-yloxy]-acetic acid], the IC50 at Phospholipase A2 [3] was 21 nM; in assay [4] it was 30 nM.
